From patent US8492582B2, “N-acyl anthranilic acid derivative or salt thereof” (Toyama Chemical Co., Ltd., priority 2009, dated 2013)
Counter-ions that a name gives are not always drawn.

These compounds were tested on type I collagen α1 chain mRNA in WI-38 cells (assay: Type I collagen α1 chain mRNA expression inhibition test). Settings: Homo sapiens, WI-38, 24 h, read-out: Inhibition rate (%) at 10 μmol/L.
Assay type: cell-based
Method: Human embryonic lung fibroblast cell line WI-38 cells were suspended in a Dulbecco's modified Eagle's medium containing 10% fetal calf serum, and 7.5×10^4 cells were inoculated on a 12-well plate and cultured for 3 days, or 1.5×10^5 cells were inoculated and cultured for 2 days. After the growth of the cells to a subconfluent state, the culture medium was changed to a Dulbecco's modified Eagle's medium containing 0.4% fetal calf serum and 50 μg/mL ascorbic acid, and the cells were further cultured for 24 hours. Then, a test compound was added thereto, and, one hour later, TGF-β1 was added at a final concentration of 1 ng/mL. Twenty-four hours after the addition, the total RNA was extracted from the cells using an RNA extraction kit (SV Total RNA Isolation System, Promega), and cDNA was synthesized using a reverse transcriptase (ReverTra Ace, TOYOBO). The expression level of the type I collagen al chain mRNA was analyzed with a real-time PCR instrument (ABI PRISM 7700 Sequence Detection System, Applied Biosystems) by a real-time PCR method using a premix reagent of real-time PCR (SYBR Premix Ex Taq or SYBR Premix Ex Taq II (Perfect Real Time), TaKaRa). A PCR reaction was conducted with diluted cDNA as a template, using primers specific for a type I collagen α1 chain gene or a GAPDH gene as an internal standard, and the reaction product was measured. The PCR reaction was conducted by incubation at 95° C. for 10 seconds and 45 cycles of denaturation at 95° C. for 5 seconds and annealing/extension at 60° C. for 30 seconds. The expression level of the type I collagen α1 chain mRNA was corrected with GAPDH and was expressed as a relative value when the expression level obtained in the absence of the test compound was defined as 100%.

Compound | inhibition at 10 µM [%]
O=C(Nc1cc(-c2ccccc2OC(F)F)ccc1C(=O)O)c1cncc(-c2ccccc2)c1 [9b] | 84
O=C(Nc1cc(-c2ccccc2F)ccc1C(=O)O)c1cncc(-c2ccccc2)c1 [44b, sodium 4-(2-fluorophenyl)-2-(5-phenylpyridine-3-carboxamido)-benzoate] | 93
O=C(Nc1cc(-c2ccsc2)ccc1C(=O)O)c1cncc(-c2ccccc2)c1 [46b, sodium 2-(5-phenylpyridine-3-carboxamido)-4-(thiophen-3-yl)benzoate] | 69
O=C(Nc1cc(N2CCCCC2)ccc1C(=O)O)c1cncc(-c2ccccc2)c1 [63b, Sodium 2-(5-phenylpyridine-3-carboxamido)-4-(piperidin-1-yl)benzoate] | 65

Same assay, conditions: Homo sapiens; 10 μmol/L test compound; WI-38 cells, TGF-β1 1 ng/mL, 24 hours; Table 4a; read-out: Inhibition rate (%) at 10 μmol/L

Compound | inhibition at 10 µM [%]
O=C(Nc1cc(-c2ccc[nH]2)ccc1C(=O)O)c1cc(N2CCCCC2)ccc1O [157a, 2-(2-hydroxy-5-(piperidin-1-yl)benzamido)-4-(1H-pyrrol-2-yl)benzoic acid] | 84
CC1CCCN(c2ccc(O)c(C(=O)Nc3cc(-c4ccccc4)ccc3C(=O)O)c2)C1 (stereo not shown) [166a, 2-(2-Hydroxy-5-(3-methylpiperidin-1-yl)benzamido)-4-phenylbenzoic acid hydrochloride] | 95
O=C(Nc1cc(-c2ccccc2)ccc1C(=O)O)c1cc(OCCN2CCN(CCCO)CC2)ccc1O [174a, 2-(2-hydroxy-5-(2-(4-(3-hydroxypropyl)piperazin-1-yl)ethoxy)benzamido)-4-phenylbenzoic acid] | 86
O=C(Nc1cc(-c2ccccc2)ccc1C(=O)O)c1cc(OCCN2CCC2)ccc1O [177a, 2-(5-(2-(azetidin-1-yl)ethoxy)-2-hydroxybenzamido)-4-phenylbenzoic acid hydrochloride] | 82
O=C(Nc1cc(-c2ccccc2)ccc1C(=O)O)c1cc(OCCN2CCC(CCO)CC2)ccc1O [180a, 2-(2-Hydroxy-5-(2-(4-(hydroxyethyl)piperidin-1-yl)ethoxy)benzamido)-4-phenylbenzoic acid hydrochloride] | 85
O=C(Nc1cc(-c2ccccc2)ccc1C(=O)O)c1cc(OCCN2CCCCCC2)ccc1O [181a, 2-(5-(2-(Homopiperidin-1-yl)ethoxy)-2-hydroxybenzamido)-4-phenylbenzoic acid hydrochloride] | 74
CCN(CCO)CCOc1ccc(O)c(C(=O)Nc2cc(-c3ccccc3)ccc2C(=O)O)c1 [182a, 2-(5-(2-(Ethyl(2-hydroxyethyl)amino)ethoxy)-2-hydroxybenzamido)-4-phenylbenzoic acid hydrochloride] | 82
CCCN1CCN(CCOc2ccc(O)c(C(=O)Nc3cc(-c4ccccc4)ccc3C(=O)O)c2)CC1 [183a, 2-(2-hydroxy-5-(2-(4-propylpiperazin-1-yl)ethoxy)benzamido)-4-phenylbenzoic acid dimethanesulfonate] | 81
CN1CCC(COc2ccc(O)c(C(=O)Nc3cc(-c4ccccc4)ccc3C(=O)O)c2)CC1 [189a, 2-(2-hydroxy-5-(1-methylpiperidin-4-ylmethoxy)benzamido)-4-phenylbenzoic acid hydrochloride] | 95
CN1CCC(CCOc2ccc(O)c(C(=O)Nc3cc(-c4ccccc4)ccc3C(=O)O)c2)CC1 [190a, 2-(2-Hydroxy-5-(2-(1-methylpiperidin-4-yl)ethoxy)benzamido)-4-phenylbenzoic acid hydrochloride] | 86
CN1CCN(c2ccc(O)c(C(=O)Nc3cc(-c4ccccc4)ccc3C(=O)O)c2)CC1=O [193a, 2-(2-Hydroxy-5-(4-methyl-3-oxopiperazin-1-yl)benzamido)-4-phenylbenzoic acid] | 85
O=C(Nc1cc(-c2cccc(F)c2)ccc1C(=O)O)c1cc(N2CCOCC2)ccc1O [198a, 4-(3-Fluorophenyl)-2-(2-hydroxy-5-(morpholin-4-yl)benzamido)benzoic acid] | 81
Cc1cccc(-c2ccc(C(=O)O)c(NC(=O)c3cc(N4CCOCC4)ccc3O)c2)c1 [201a, 2-(2-Hydroxy-5-(morpholin-4-yl)benzamido)-4-(3-methylphenyl)benzoic acid] | 94
COc1cccc(-c2ccc(C(=O)O)c(NC(=O)c3cc(N4CCOCC4)ccc3O)c2)c1 [204a, 2-(2-Hydroxy-5-(morpholin-4-yl)benzamido)-4-(3-methoxyphenyl)benzoic acid] | 89
O=C(Nc1cc(-c2ccc3c(c2)ONO3)ccc1C(=O)O)c1cc(N2CCOCC2)ccc1O [207a, 4-(Benzo-[1,3]-dioxazol-5-yl)-2-(2-hydroxy-5-(morpholin-4-yl)benzamido)benzoic acid] | 83
CN1CCCCC1c1ccc(O)c(C(=O)Nc2cc(-c3ccccc3)ccc2C(=O)O)c1 (stereo not shown) [217a, 2-(2-hydroxy-5-(1-methylpiperidin-2-yl)benzamido)-4-phenylbenzoic acid] | 91

Same assay, conditions: Homo sapiens; 10 μmol/L test compound; WI-38 cells, TGF-β1 1 ng/mL, 24 hours; Table 4b; read-out: Inhibition rate (%) at 10 μmol/L

Compound | inhibition at 10 µM [%]
O=C(Nc1cc(-c2ccccc2)ccc1C(=O)O)c1ccc(-c2ccccc2)nc1 [3b, 4-phenyl-2-(6-phenylpyridine-3-carboxamido)benzoic acid] | 83
O=C(Nc1cc(-c2ccccc2)ccc1C(=O)O)c1ccnc(-c2ccccc2)c1 [4b, 4-Phenyl-2-(2-phenylpyridine-4-carboxamido)benzoic acid] | 93
O=C(Nc1cc(-c2ccccc2)ccc1C(=O)O)c1cccc(-c2ccccc2)n1 [5b, 4-Phenyl-2-(6-phenylpyridine-2-carboxamido)benzoic acid] | 72
CCNc1cccc(-c2ccc(C(=O)O)c(NC(=O)c3cncc(-c4ccccc4)c3)c2)c1 [11b, 4-(3-(ethylamino)phenyl)-2-(5-phenylpyridine-3-carboxamido)benzoic acid] | 80
CNc1ccccc1-c1ccc(C(=O)O)c(NC(=O)c2cncc(-c3ccccc3)c2)c1 [12b, 4-(2-(Methylamino)phenyl)-2-(5-phenylpyridine-3-carboxamido)benzoic acid] | 87
CNc1cccc(-c2ccc(C(=O)O)c(NC(=O)c3cncc(-c4ccccc4)c3)c2)c1 [13b, 4-(3-(Methylamino)phenyl)-2-(5-phenylpyridine-3-carboxamido)benzoic acid] | 92
Nc1ccccc1-c1ccc(C(=O)O)c(NC(=O)c2cncc(-c3ccccc3)c2)c1 [27b, 4-(2-Aminophenyl)-2-(5-phenylpyridine-3-carboxamido)benzoic acid] | 72
O=C(Nc1cc(-c2ccccc2)ccc1-c1nnn[nH]1)c1cncc(-c2ccccc2)c1 [29b, 5-phenyl-N-(5-phenyl-2-(1H-tetrazol-5-yl)phenyl)pyridine-3-carboxamide] | 86
Cc1ccccc1-c1ccc(C(=O)O)c(NC(=O)c2cncc(-c3ccccc3)c2)c1 [32b, Sodium 4-(2-methylphenyl)-2-(5-phenylpyridine-3-carboxamido)benzoate] | 81
O=C(Nc1cc(-c2ccccc2C(F)(F)F)ccc1C(=O)O)c1cncc(-c2ccccc2)c1 [33b, Sodium 2-(5-phenylpyridine-3-carboxamido)-4-(2-(trifluoromethyl)phenyl)benzoate] | 78
COc1cccc(-c2ccc(C(=O)O)c(NC(=O)c3cncc(-c4ccccc4)c3)c2)c1 [35b, Sodium 4-(3-methoxyphenyl)-2-(5-phenylpyridine-3-carboxamido)benzoate] | 96
CCOc1ccccc1-c1ccc(C(=O)O)c(NC(=O)c2cncc(-c3ccccc3)c2)c1 [38b, Sodium 4-(2-ethoxyphenyl)-2-(5-phenylpyridine-3-carboxamido)benzoate] | 94
O=C(Nc1cc(-c2ccccc2OC(F)(F)F)ccc1C(=O)O)c1cncc(-c2ccccc2)c1 [40b, Sodium 2-(5-phenylpyridine-3-carboxamido)-4-(2-(trifluoromethoxy)phenyl)benzoate] | 96
Cn1cccc1-c1ccc(C(=O)O)c(NC(=O)c2cncc(-c3ccccc3)c2)c1 [45b, 4-(1-methyl-1H-pyrrol-2-yl)-2-(5-phenylpyridine-3-carboxamido)benzoic acid] | 90
CN(C)c1cccc(-c2ccc(C(=O)O)c(NC(=O)c3cncc(-c4ccccc4)c3)c2)c1 [51b, 4-(3-(Dimethylamino)phenyl)-2-(5-phenylpyridine-3-carboxamido)benzoic acid] | 92
O=C(Nc1cc(-c2ccc[nH]2)ccc1C(=O)O)c1cncc(-c2ccccc2)c1 [58b, 2-(5-phenylpyridine-3-carboxamido)-4-(1H-pyrrol-2-yl)benzoic acid] | 78
O=C(Nc1cc(Nc2ccccc2)ccc1C(=O)O)c1cncc(-c2ccccc2)c1 [61b, 4-anilino-2-(5-phenylpyridine-3-carboxamido)benzoic acid] | 86
